Results taken from ChEMBL document CHEMBL1148588, “Anthrax lethal factor protease inhibitors: synthesis, SAR, and structure-based 3D QSAR studies” (J Med Chem, 2006).

Biological target: T1, Lethal factor (Bacillus anthracis, UniProt P15917)
T1 sequence (P15917 whole entry): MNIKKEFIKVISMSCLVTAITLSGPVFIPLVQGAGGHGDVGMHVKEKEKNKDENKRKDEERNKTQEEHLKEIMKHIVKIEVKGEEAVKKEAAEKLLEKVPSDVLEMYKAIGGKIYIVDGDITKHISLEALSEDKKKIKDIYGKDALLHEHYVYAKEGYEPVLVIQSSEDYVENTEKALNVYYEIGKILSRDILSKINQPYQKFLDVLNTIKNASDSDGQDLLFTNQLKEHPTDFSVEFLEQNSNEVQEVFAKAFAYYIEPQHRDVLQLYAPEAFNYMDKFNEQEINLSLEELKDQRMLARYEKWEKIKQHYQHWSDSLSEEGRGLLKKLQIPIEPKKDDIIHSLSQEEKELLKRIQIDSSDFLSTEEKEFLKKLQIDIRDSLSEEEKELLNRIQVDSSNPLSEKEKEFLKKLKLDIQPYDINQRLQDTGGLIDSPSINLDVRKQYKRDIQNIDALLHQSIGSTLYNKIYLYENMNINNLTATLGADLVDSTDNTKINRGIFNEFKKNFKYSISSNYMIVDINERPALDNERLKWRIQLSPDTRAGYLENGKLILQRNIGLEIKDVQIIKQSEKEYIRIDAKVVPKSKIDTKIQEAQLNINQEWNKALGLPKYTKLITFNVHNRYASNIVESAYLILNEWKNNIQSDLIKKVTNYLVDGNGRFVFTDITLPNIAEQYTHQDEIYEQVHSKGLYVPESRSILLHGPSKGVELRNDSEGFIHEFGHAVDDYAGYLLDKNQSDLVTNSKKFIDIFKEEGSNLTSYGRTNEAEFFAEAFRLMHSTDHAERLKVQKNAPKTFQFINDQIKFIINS
Assay: Inhibitory activity against anthrax lethal factor metalloprotease

SMILES	IC50 [µM]	Log IC50
O=C(O)CN1C(=O)/C(=C/c2ccc(-c3ccc(I)cc3)o2)SC1=S	5.6	
CN1/C(=C/c2ccc(-c3ccc(Cl)cc3)o2)C(=O)NC1NC(=O)O (stereo not given)	> 100	> -4
O=C(O)CN1C(=O)S/C(=C\c2ccc(-c3ccc(Cl)cc3[N+](=O)[O-])o2)C1=O	0.5	
O=C(O)CN1C(=O)S/C(=C\c2ccc(-c3cc(C(F)(F)F)ccc3Cl)o2)C1=O	5.9	
